From patent publication US7910065B2, “Reaction sensing in living cells” (The Charles Stark Draper Laboratory, Inc., priority 2005, dated 2011)

How the values were obtained:
[1] = tested on: wild type (WT) yeast containing the ERG2; experiment: Optical sodium and potassium ion sensor monitoring of yeast cells stimulated with a HERG inhibitor (HERG compatibility screen), wild type; settings: FIG. 6
Source text: (§1) The sensors of the present invention are suited to many different types of assays, or for the detection of compounds. In one exemplary application, a model cell system is used to screen for HERG compatibility. HERG (human ether-a-go-go) channels are implicated in the abnormal heart rhythms associated with Long QT Syndrome. It is believed that many compounds can block these channels and cause prolongation of the beat cycle of the heart. This abnormal rhythm can cause arrhythmia and can even lead to death. Accordingly, it is important that all drugs, regardless of therapeutic target, be screened for HERG compatibility.
(§2) Much is known genetically about yeast, and gene knock-outs are commercially available, allowing for the screening of two types of yeast: the wild type (WT) containing the ERG2, and one mutated to knock-out the ERG2 gene.
(§3) This example utilizes two cell types and two types of sensors, providing four different data signals, and the approach can be extended to an arbitrary number of sensors and cell types. Similarly, tissue can be used instead of culture.

[2] = tested on: yeast mutated to knock-out the ERG2 gene; experiment: Optical sodium and potassium ion sensor monitoring of yeast cells stimulated with a HERG inhibitor (HERG compatibility screen), ERG2 knock-out; settings: FIG. 6
Source text: as §1, §2, §3

SMILES: O=C(CCCN1CCC(O)(c2ccc(Cl)cc2)CC1)c1ccc(F)cc1 [Haloperidol]
- change in potassium upon stimulation of the cells ([1]; potassium sensor): a change is observed
- change in sodium upon stimulation of the cells ([1]; sodium sensor): a change is observed
- response in potassium upon stimulation of the cells ([2]; potassium sensor): no response
- response in sodium upon stimulation of the cells ([2]; sodium sensor): no response
